According to patent US8273875B2, “High performance luminescent compounds” (University of Notre Dame du Lac, priority 2009, dated 2012):

Experiment: Photobleaching of biotinylated fluorophores on avidin-coated magnetic particles, epifluorescent microscope
Format: physicochemical
Conditions: bound to 1.3 μm avidin-coated magnetic particles, constant excitation, images every 30 seconds
Protocol: FIG. 6 illustrates a photobleaching profile of biotinylated fluorophores, in accordance with various embodiments.
In one specific, non-limiting example, the photobleaching of commercially available biotin-4-carboxyfluorescein (CF-biotin), and biotin-squaraine rotaxane (SQR-biotin) was examined by measuring the half-life of each of the probes. The dyes were incubated in excess with 1.3 μm magnetic particles coated in avidin. Following the incubation, the particles were washed of any unbound fluorophore, and the samples were then imaged on an epifluorescent microscope. The samples remained under constant excitation and images were captured every 30 seconds. Using ImageJ software, a region of interest (ROI) was drawn around the imaged magnetic particles and the mean pixel intensity was measured for each image.

photobleaching profile (fluorescence intensity versus time): dramatic photobleaching
Substance: biotin-4-carboxyfluorescein [CF-biotin]
